Measurements reported in patent publication US9226503B2, “Composition and method for attraction of emerald ash borer Agrilus planipennis fairmaire (coleoptera: buprestidae)” (Her Majesty the Queen in Right of Canada, as represented by …, priority 2011, dated 2016).

How the values were obtained:
[1] = tested on: A. planipennis antennae; test: GC-EAD analysis; set-up: species or system Agrilus planipennis; settings: synthetic mixture of (3E)- and (3Z)-lactones
Description: A Varian CP-3380 gas chromatograph with FID detector was modified for use with a GC-EAD signal recording device (IDAC-232). EAG data were analyzed using Syntech GC-EAD software v.2.6 (SYNTECH, The Netherlands). The column used for analysis was a Supelco SPB-5 capillary (30 m×0.32 mm×0.25 μm film) in the splitless mode with helium as carrier gas. The injection port was at 220° C. and the oven temperature was programmed from 70° C., held for 1 min and then increased at 10° C./min to 240° C. and held for 30 min. A number of GC-EAD runs on male and female volatiles were carried out. Both the (3Z)-lactone and (3E)-lactone were diluted to 10 μg/ml in hexane; 1 μl of diluted pheromone was injected for each GC-EAD run.
Ten nanograms was injected for the GC-EAD analysis consisting of 90% (3Z)-lactone and 10% (3E)-lactone using a DB-1 (15 m×0.25 mm ID, 1 μm film) capillary column (J&W Scientific, Folsom, Calif.). The GC oven temperature program was 50° C. for 1 min, then increased at 20° C./min and held at 280° C. for 2 min. The GC-EAD responses of five male and five female EAB antennae were analyzed.

[2] = Effect of light on (3Z)-lactone (isomerization); type: physicochemical; settings: for isomerization in direct sunlight: quartz cuvette or surface of female cadavers, 2-3 days
Description: To determine whether light would promote the isomerization from (3Z) to (3E)-lactone, 20 mg of (3Z)-lactone was placed neat on a glass slide 10 mm below a UV light (UVG-54 handheld UV-lamp, 254 nm, 6w; UVP Upland Calif., USA) for three d. Subsamples (taken as 1 mg in a pipette) were analyzed by GC/MS at regular intervals and the ratio of (3E):(3Z)-lactone was recorded. In addition, 6 mg of each of (3Z)- and (3E)-lactones (neat) were coated on the quartz surface of a cuvette and exposed outdoors to sunlight at 11° C. mean temperature for 9 d for an average of 5 h a day. Finally, (3Z)-lactone was coated (4 mg) on the dorsal surface of abdomen and […] of 3 female EAB cadavers that were exposed to sunlight for 6 h per day for 1, 2 or 3 d at 10° C. mean temperature; cadavers were stored at 4° C. between sunny days. The lactones were removed from cuvettes and cadavers with hexane washing and analysed by GC/MS to determine the E:Z ratio.

[3] = tested on: A. planipennis; test: Field trapping 2011 experiment 2: (3Z)-lactone, (3Z)-hexenol and trap height factorial, dark green traps; type: in vivo, Agrilus planipennis; settings: 2×2×2 factorial, lactone 3 mg/lure
Description: (§1) Two trapping experiments were conducted in green and white ash plantations (F. pennsylvanica Marsch and F. americana L.) located 40-60 km southeast of Sarnia, Ontario in 2011. Trees were 20-30 yr old, 5-8 m tall, 12-18 cm in diameter, and spaced 2-3 m apart within and between rows. Five sites were used in total: four were green ash and the fifth was a white ash plantation. Trees at four of the sites generally appeared healthy with few or no signs of decline and only a few with obvious signs and symptoms of infestation by A. planipennis. At the fifth site, obvious crown decline and signs of infestation were apparent on about one-quarter of trees.
(§2) Green prism sticky traps (0.30 cm×35.00 cm×58.75 cm) (Synergy Semiochemicals Corp., Burnaby, BC) were used in all field trials, deployed using modified umbrella rig spreaders (Zing Products, Westport, Mass.). Traps were spaced 20-25 m apart and lure treatments replicated in randomized complete block designs. Traps were deployed either using ropes tied between two trees or using a single line over a canopy branch, as described further below for each specific experimental objective. Traps were typically checked every 2 wk and A. planipennis were collected, counted, and sexed.
Experiment 2 was a 2×2×2 factorial experiment designed to test the effects of (3Z)-lactone, (3Z)-hexenol, trap height, and their interactions on numbers of A. planipennis captured on sticky, dark green (540-nm wavelength) (Francese et al 2010a) prism traps. Traps were baited with either (3Z)-lactone, (3Z)-hexenol, (3Z)-lactone+(3Z)-hexenol, or neither compound (unbaited control) and all treatments were deployed both below the canopy or in the mid-canopy. Traps placed below the canopy were suspended from ropes tied between two trees so the trap was 1-1.5 m from either tree and the top of the trap was 1.5-2 m above the ground. Traps in the canopy were deployed from a single line looped over a mid-canopy branch such that traps were 1-1.5 m from the main stem and their tops were 6 m above ground. (3Z)-Lactone was loaded onto rubber septa lures at a dosage of 3 mg/lure. Release rates of the (3Z)-lactone and (3Z)-hexenol were 60-70 μg/day and 50-100 mg/day, respectively at 25° C. Traps were in the field from 8 June-5 August, with one block at one site (Nauvoo Ranch), 5 blocks at a second site (LaSalle, the one white ash plantation), and 4 blocks at a third site (Brook Line). The 3 mg (3Z)-lactone lures were estimated to maintain adequate release rates for a minimum of three weeks and thus were replaced after three weeks; (3Z)-hexenol lures were not replaced during the experiment.
Numbers of A. planipennis captured in the trapping experiments were subjected to ANOVA separately for males and females. […]

[4] = tested on: A. planipennis; test: Field trapping 2011 experiment 1: dose-response to (3Z)-lactone with (3Z)-hexenol, dark green traps; type: in vivo, Agrilus planipennis; settings: in combination with (3Z)-hexenol
Description: as §1, §2
The two trapping experiments tested the (3Z)-lactone with and without (3Z)-hexenol, at different dosages and heights within the canopy. Experiment 1 was designed to determine the optimum release rate for attractiveness of (3Z)-lactone to male A. planipennis, in combination with (3Z)-hexenol. Dark green (540-nm wavelength) sticky traps (Francese et al 2010a) were suspended using ropes tied between two trees in the mid-canopy and baited with a (3Z)-hexenol lure at release rate of (50-100 mg/day) (Synergy Semiochemicals, Burnaby, B.C.) plus a rubber septum (Wheaton) loaded with either 0, 0.1 mg, 1.0 mg, 10.0 mg, or 50.0 mg of (3Z)-lactone. Respective release rates of the lactone were estimated as ˜2.4 μg/day; ˜22 μg/day; ˜160 μg/day; and −600 μg/day, based on volatile collections on Super-Q® at 25° C. (Silk et al. 2011). (3Z)-Lactone lures were estimated to last three weeks in the field and were replaced once. Trapping was conducted from 9 June-21 July. Lure treatments were replicated 10 times with eight blocks at one site (Anika Mills) and two blocks at a second site (Nauvoo Ranch). (3Z)-Hexenol lures were not changed during the experiment.
Numbers of A. planipennis captured in the trapping experiments were subjected to ANOVA separately for males and females. In experiment 1, ANOVA was used to test the effect of release rate on captures of females and males. Holm-Sidak comparisons were made between treatments and the control, (3Z)-hexenol alone. In experiment 2, we used the general linear model: mean catch=lactone+GLV+trap height+lactone*trap height+GLV*trap height+lactone*GLV+lactone*GLV*trap height+error, in SAS GLM (SAS Institute 1999-2003). Residuals were tested for homogeneity of variance and normality, and a ln(y+1) transformation was used where necessary. We present the untransformed last squares treatment means and their standard errors, along with statistics (P>F) from ANOVA of transformed data.

Structure (SMILES) | GC-FID/EAD responses of male and female antennae [1] | isomerization in direct sunlight [2] | mean capture of males per trap, effect of presence of the lure component [3] | mean catch of females, effect of the lure component [3] | effect of storing in a pyrex container (filters out UV-light) [2] | conjugated isomer formed on UV exposure ([2]; UV lamp 254 nm, GC/MS) [%] | (3E):(3Z) ratio, initial lactone sample ([2]; before UV exposure) | (3E):(3Z) ratio after exposure to UV light ([2]; neat, UV lamp 254 nm, three d) | stability to isomerization under normal laboratory fluorescent lighting ([2]; preliminary studies) | release rate beyond which captures of males decline ([4]; dark green traps) | trap capture of males, effect of (3Z)-lactone release rate ([4]; 0-50.0 mg lures, p=0.035) | trap capture of females, effect of (3Z)-lactone release rate ([4]; 0-50.0 mg lures, p=0.315) | captures of males compared to (3Z)-hexenol alone, 0.1 mg dose ([4]; 0.1 mg lure, release rate 2.4 μg/day at 25° C., p=0.003) | captures of males compared to (3Z)-hexenol alone, 1.0 mg dose ([4]; 1.0 mg lure, p=0.052)
O=C1C/C=C/CCCCCCCCO1 [(3E)-lactone, (3E)-dodecen-12-olide] | significant responses | very slow isomerization | – | – | – | – | – | – | – | – | – | – | – | –
O=C1C/C=C\CCCCCCCCO1 [(3Z)-lactone, (3Z)-dodecen-12-olide] | significant responses | very slow isomerization | significantly and positively affected | not | preventing photoisomerisation | < 1 | 0.028 | 0.60 | very stable | ca. 160 μg/day | varied significantly with (3Z)-lactone release rate | not influenced by (3Z)-lactone release rate | highest | marginal increase in captures of males
